Data taken from patent US20210177814A1, “USE OF GUANABENZ OR DERIVATES THEREOF FOR THE TREATMENT OF TYPE I IFN-DEPENDENT PATHOLOGIES” (INSERM (Institut National de la Santé et de la Recherche …, priority 2018, published 2021).
“Also recorded” adds a separate entry of the source.

Assays:
[1] = target: T1, TLR3 (Mus musculus, UniProt Q99MB1); test: Cytokine production by sorted Flt3L-DC cDC1 activated with poly I:C LMW; type: cell-based; conditions: sorted cDC1, 10 μg/mL poly I:C LMW 6 h, GBZ 50 μM
T1 construct: endogenous in cells; host or cells: sorted cDC1 from Flt3L-differentiated mouse bone marrow cultures
T1 sequence (Q99MB1 26-905): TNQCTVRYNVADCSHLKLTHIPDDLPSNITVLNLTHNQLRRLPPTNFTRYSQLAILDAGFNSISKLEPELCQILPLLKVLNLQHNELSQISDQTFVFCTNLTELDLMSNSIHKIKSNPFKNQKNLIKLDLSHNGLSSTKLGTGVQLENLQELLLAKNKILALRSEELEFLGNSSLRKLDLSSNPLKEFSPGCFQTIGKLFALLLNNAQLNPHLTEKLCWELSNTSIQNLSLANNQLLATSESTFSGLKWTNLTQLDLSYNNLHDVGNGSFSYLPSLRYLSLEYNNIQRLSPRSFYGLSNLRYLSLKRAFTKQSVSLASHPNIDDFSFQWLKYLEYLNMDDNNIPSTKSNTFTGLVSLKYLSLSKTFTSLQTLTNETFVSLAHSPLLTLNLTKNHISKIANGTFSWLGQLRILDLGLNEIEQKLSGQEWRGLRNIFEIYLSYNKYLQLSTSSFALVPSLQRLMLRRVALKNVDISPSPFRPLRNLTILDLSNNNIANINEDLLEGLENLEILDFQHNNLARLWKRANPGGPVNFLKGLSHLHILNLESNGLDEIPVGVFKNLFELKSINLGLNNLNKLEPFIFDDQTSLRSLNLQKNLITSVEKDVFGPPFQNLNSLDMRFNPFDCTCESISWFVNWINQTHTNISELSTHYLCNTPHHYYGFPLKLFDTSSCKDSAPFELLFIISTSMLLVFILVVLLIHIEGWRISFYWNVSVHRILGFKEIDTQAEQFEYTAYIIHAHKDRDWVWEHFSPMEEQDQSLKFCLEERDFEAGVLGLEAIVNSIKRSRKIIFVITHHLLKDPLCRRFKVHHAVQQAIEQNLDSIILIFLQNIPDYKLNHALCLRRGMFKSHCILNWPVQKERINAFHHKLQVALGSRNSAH
Method: FIG. 1: Guanabenz inhibits TLR3 and TLR9 activation in mouse Flt3-L DCs and human blood pDCs. A) Sorted bone marrow derived Flt3L-DCs were activated for 6 h with 10 μg/mL poly I:C LMW (TLR3 in DC1) or 1 μM ODN 1585 (TLR9 in pDCs). GBZ was added at 50 μM and inhibited IFN-β and Interleukin-6 (IL-6) production in activated cells. B) hTLR4, hTLR3, hTLR9 and hTLR7 expressed in the reporter HEK-Blue™ cells are inhibited by GBZ. TLR-expressing HEK-Blue™ cells were respectively activated with 100 ng/mL LPS, 10 μg/mL poly I:C LMW, 2.5 μM ODN 2006 or 5 μg/mL imiquimod, respectively. GBZ was added at 50 μM. TLR activity was measured indirectly through SEAP activity as absorbance at 405 nm. […] Protein concentration of IFN-α and TNF-α secreted were measured at the indicated time points or at 16 h. […]
BM-derived DCs were differentiated in vitro from the bone marrow of 6-8 weeks old male mice, using either FLT3 ligand or GM-CSF. […] For sorted Flt3L-DCs, cells were gently harvested at day 7 with cold PBS 2% FCS, centrifuged 1200 rpm 5 min at 4° C., counted and stained with for 30 mins at 4° C. […]
Mouse IFN-β quantification in culture supernatant was performed using the Mouse Interferon Beta ELISA kit (PBL InterferonSource); mouse IL-6, TNFα, IL-10, human TNFα and human IFNα were quantified using ELISA kit (eBioscience) respectively, according to manufacturer instructions. […]

[2] = test system: TLR9 signal transduction pathway; test: Phospho-flow detection of rpS6 phosphorylation after CpG exposure; type: cell-based; conditions: CAL-1 and human B cells, 15 min to 1 h of CpG exposure, data not shown
[3] = test system: RIG-I like receptor (RLR) dsRNA sensing pathway; test: IRF3 activation and IFN-β expression in MEFs lipofected with poly(I:C); type: cell-based, mouse; conditions: WT and Gadd34-deficient
Method: FIG. 2: Interferon β (IFNb) production in response to cytosolic dsRNA (Poly I:C) in WT and Gadd34-deficient embryonic fibroblasts (MEFs) treated with Guanabenz.
(A) IFNb expression in response to lipofected dsRNA (poly I:C) was measured by qPCR (mRNA) or (B) by ELISA (secreted protein) after treatment with Guanabenz (GBZ). (C) Activation of the transcription IRF3 by phosphorylation that drives IFN-β mRNA expression was monitored by western blot in WT and Gadd34-deficient animals (ΔC/ΔC, KO or −/−) in response to lipofected poly I:C in presence of GBZ. (D) eIF2α A/A mutants MEFs (unable to phosphorylate eIF2α on Serine 52, that is targeted by GADD34 and to inhibit protein synthesis) were also tested for IFN-β production and IRF3 activation.

NC(N)=N/N=C/c1c(Cl)cccc1Cl [GBZ, 2-(2,6-dichlorobenzylidene)-hydrazinecarboximidamide]
IFN-β production [1]: nearly abrogated; also recorded: inhibited | IL-6 production [1]: nearly abrogated; also recorded: inhibited | rpS6 phosphorylation [2]: strong reduction | IFN-β expression (mRNA by qPCR, secreted protein by ELISA) [3]: inhibited | activation of IRF3 (phosphorylation, western blot) [3]: inhibited | IFN-β expression (mRNA by qPCR, secreted protein by ELISA) ([3]; listed as Guanabenz): inhibit | activation of IRF3 (phosphorylation, western blot) ([3]; listed as Guanabenz): inhibit
